Experimental data from publication PMC8234734, “Pharmacokinetics and Molecular Modeling Indicate nAChRα4-Derived Peptide HAEE Goes through the Blood–Brain Barrier” (Biomolecules, 2021).

What was measured:
[1] = Pharmacokinetics of HAEE in rat blood after single i.v. bolus (dose dependence, chronic administration); details: for Cmax (maximum concentration in the blood) / AUC(0–∞) / T1/2(el) (elimination half-life) / Tmax: rat blood; for Cmax (maximum concentration in the blood): n = 6, sampling 2-30 min; for AUC(0–∞) / T1/2(el) (elimination half-life) / Tmax / ClT (total body clearance) / Kel (elimination rate constant, central compartment) / MRT (residence time) / Vd(c) (volume of distribution in the central compartment at Cmax) / Vd(extrap) / Vd(β) (volume of distribution in the elimination phase): n = 6
Procedure: In experiments on rats (Table 1, experimental groups 2–5), intravenous (i.v.) administration of the peptide and blood sampling were performed through the jugular veins. For this, in rats anesthetized with a mixture of ketamine (91 mg/kg) and xylazine (9.1 mg/kg), on the ventral side, in the area adjacent to the forelimbs and neck, two longitudinal skin incisions about 2.5 cm long were made on the right and left, and the jugular veins were dissected. An intravenous Flexicath G24 catheter (for heparin and peptide administration) (Medica LLC, Ivanovo, Russia) was installed in the left jugular vein and Flexicath G22 (for blood collection) in the right jugular vein. To prevent blood coagulation, 80 μL of heparin (5000 I.U./mL) was injected through the Flexicath G24 port before the injection of the peptide, and after 5 min a mixture of HAEE and [^3H]HAEE (400 μCi, in doses of 50, 300 or 900 μg/kg) in 200 μL of saline solution was injected for 10–15 s. Following that, after 2, 4, 6, 10, 20 and 30 min, approximately 0.3 mL of venous blood was collected into pre-weighed plastic tubes. After collection, the blood tubes were immediately frozen in liquid nitrogen and weighed. Before the pharmacokinetic study, rats in experimental group 5 were injected daily with i.p. peptide HAEE at a dose of 300 μg/kg for 28 days.
(§1) Frozen and weighed tissue samples in plastic tubes were freeze-dried for 48 h. The freeze-dried tissue samples were heated at 65 °C for 30 min, after which they were homogenized, and the peptide fraction was extracted with 90% aqueous acetonitrile containing 1% TFA [13]. To facilitate HPLC analysis of radioactively labeled HAEE and normalize the loss of the peptide during extraction, 10 μg of HAEE was added to the extraction solution for each sample. After centrifugation, the solution containing HAEE and blood components was dried under reduced pressure, stripped with methanol and re-centrifuged. The resulting solution containing a mixture of HAEE and [^3H]HAEE was subjected to evaporation under reduced pressure, re-extraction with 0.1% aqueous TFA solution and subsequent centrifugation. Quantitative analysis of the HAEE peptide was performed using HPLC on a Kromasil C18 column, 4 × 150 mm (Nouryon-Separation Products, Bohus, Sweden) in methanol concentration gradient (12–26% for 13 min), in 0.1% HFBA (heptafluorobutyric acid). The fraction containing the HAEE peptide was collected and its [^3H]HAEE content was determined by liquid scintillation counting. The obtained radioactivity value was normalized to the area of the HAEE peak in the chromatogram (UV absorbance at 220 nm).
(§2) To calculate the pharmacokinetic parameters, we used the values of HAEE peptide concentrations in blood and tissues averaged over three (rabbit) or six (rats and mice) animals. All quantitative values are given as means ± standard deviation. The calculation of pharmacokinetic parameters was performed by combining the model and non-model approaches using the software Borgia 1.03 (NPP Nauka Plus, Rovno, Ukraine) and SigmaPlot 11.0 (Systat Software, San Jose, CA, USA).

[2] = Distribution of HAEE in mouse tissues after i.p. bolus; assay type: in vivo; details: mice, i.p. bolus 300 μg/kg
Procedure: In the experiments on mice (Table 1, experimental group 6), a mixture of HAEE and [^3H]HAEE (50 µCi, at a dose of 300 µg/kg) in 200 µL of saline solution was injected intraperitoneally. The animals were decapitated at the end of the period specified by the protocol; blood and studied tissues were collected in weighed plastic tubes, frozen with liquid nitrogen and weighed. When calculating the volumetric concentrations of the total amount of the HAEE peptide (labeled, unlabeled or their mixture) in the blood, the density of the blood was taken equal to 1.056 g/mL [12].
All quantitative values are given as means ± standard deviation.
Within the study, bioavailability of HAEE for several organs and tissues was analyzed with i.p. bolus administration to mice at a dose of 300 μg/kg. The quantity of HAEE in the blood, brain, kidneys, liver, heart and omentum was determined at 2, 4, 6, 10, 15 and 20 min after peptide administration. For all tissues, similar changes in the concentrations of HAEE over time were observed (Figure 3A–C). These were characterized by a bimodal relationship with peaks at 4 and 10–15 min.
Tissue bioavailability of HAEE for the brain was about 3%, which is typical for most pharmacological substances. […] This may indicate accumulation of HAEE in the brain parenchyma due to its active transfer through the BBB and further binding and retention at the affinity sites of neuronal protein targets.

[3] = In vitro stability assay of HAEE in human plasma; assay type: in vitro ADME; details: 1 mM in PBS, 20 µL diluted in 80 µL fresh human plasma, 37 °C, 24 h, MeOH precipitation, RP-HPLC UV 205 nm; data not shown
Procedure: An in vitro assay of the unlabeled peptide stability was performed as described in [19]. Briefly, HAEE was prepared as a 1 mM solution in phosphate-buffered saline and 20 µL of the peptide solution was diluted in 80 µL of human plasma (freshly taken). The solution was incubated at 37 °C for different times, and the reaction was stopped by adding the Roche cOmplete Protease Inhibitor Cocktail (Roche Molecular Biochemicals, Mannheim, Germany). The bulk of the plasma proteins (but none of the peptide) was precipitated in cold methanol (1:4 (v/v) mixture/MeOH) for 1 h at […]. The precipitated proteins were pelleted by centrifugation at 10,000× g for 10 min at 4 °C. The supernatant containing the peptide was concentrated five times under vacuum and separated by RP-HPLC. The area of the peak (UV absorbance at 205 nm) corresponding to the intact peptide was measured and compared with an equivalent sample incubated in phosphate-buffered saline.

[4] = Pharmacokinetics of HAEE in rabbit blood after single i.v. bolus; assay type: in vivo
Procedure: In experiments on rabbits (Table 1, experimental group 1), peptide administration and blood sampling were performed through the large ear veins. To restrict movement, the rabbit was placed in a restrainer with a head hole. Into the right ear, through the large ear vein, 4000 IU of heparin (FSUE “Moscow Endocrine Plant”, Moscow, Russia) in 0.8 mL of saline solution was injected using an insulin syringe, and after 5 min a Flexicath G22 intravenous catheter (Medica LLC, Ivanovo, Russia) was installed into the large ear vein of the left ear for subsequent blood sampling.
A 0.5 mL of the mixture of HAEE and [^3H]HAEE (2000 µCi, at a dose of 120 µg/kg) was injected with an insulin syringe into the right ear vein for 10–15 s, and after 2, 4, 6, 10, 20, 30, 60, 90 and 120 min, approximately 0.5 mL of venous blood was collected through the catheter and placed into pre-weighed plastic tubes. Immediately after collection, blood tubes were frozen in liquid nitrogen and weighed.
as §1, §2
Taking this into account, to determine the pharmacokinetic characteristics of HAEE after systemic administration to rabbits, we analyzed the peptide content in the blood for a long period of time, from 2 to 120 min. The peptide was administered i.v. at a dose of 120 μg/kg.

[5] = tested on: rats; test: Observation of toxic effects after repeated administration to rats; details: administered repeatedly (daily for 28 days, 300 μg/kg)
[6] = tested on: B6C3-Tg (APPswe, PSEN1-dE9) 85Dbo/j mice; details: intravenous injections of HAEE; control animals 14.2 ± 3.1; cited from earlier work
Excerpt: (§3) The tetrapeptide HAEE had been proposed as one of the candidate molecules for inhibiting cerebral amyloidogenesis in AD [7]. This peptide is a synthetic analogue of the 35-His-Ala-Glu-Glu-38 (35-HAEE-38) fragment of the extracellular N-terminal domain of subunit α4 of the α4β2 nAChR. This fragment (conservative for humans, mice and chicken) forms the interface for the interaction of α4β2 nAChR with Aβ [5]. It has been previously shown by molecular modeling methods that this interaction is stabilized by ion bridges between the complementary charged side groups of the H/E and E/H amino acid ...

[7] = tested on: α4β2 nAChR; details: model oocytes, exogenous HAEE; cited from earlier work
Excerpt: as §3

[8] = single i.v. bolus 300 μg/kg after a 28 day course of unlabeled HAEE 300 μg/kg/day
[9] = rat, i.v. bolus, range over doses of 50, 300 and 900 µg/kg
[10] = rat, single i.v. bolus 50 μg/kg
[11] = rat, single i.v. bolus 300 μg/kg after a 28 day course of unlabeled HAEE 300 μg/kg/day
[12] = rat, single i.v. bolus 300 μg/kg
[13] = rat, single i.v. bolus 900 μg/kg
[14] = blood, brain, kidneys, liver, heart, omentum
[15] = rabbit blood, single i.v. bolus 120 μg/kg, n = 3
[16] = rabbit, single i.v. bolus 120 μg/kg, n = 3

## Acetyl-His-Ala-Glu-Glu-Amide [HAEE, synthetic tetrapeptide, analogue of the 35–38 region of the α4 subunit of α4β2 nicotinic acetylcholine receptor]
[1]; single i.v. bolus 50 μg/kg HAEE + [3H]HAEE, HPLC + liquid scintillation
  Cmax (maximum concentration in the blood): 73.9 ng/mL
[1]; single i.v. bolus 50 μg/kg
  AUC(0–∞): 1383 (ng/mL) × min
  T1/2(el) (elimination half-life): 23 min
  Tmax: 4 min
[1]; single i.v. bolus 300 μg/kg HAEE + [3H]HAEE, HPLC + liquid scintillation
  Cmax (maximum concentration in the blood): 439 ng/mL
[1]; [8]
  AUC(0–∞): 12,137 (ng/mL) × min
  T1/2(el) (elimination half-life): 29 min
  Tmax: 4 min
  Cmax (maximum concentration in the blood): 444 ng/mL
[1]; single i.v. bolus 300 μg/kg
  AUC(0–∞): 11,340 (ng/mL) × min
  T1/2(el) (elimination half-life): 22 min
  Tmax: 4 min
[1]; single i.v. bolus 900 μg/kg HAEE + [3H]HAEE, HPLC + liquid scintillation
  Cmax (maximum concentration in the blood): 1322 ng/mL
[1]; single i.v. bolus 900 μg/kg
  AUC(0–∞): 47,133 (ng/mL) × min
  T1/2(el) (elimination half-life): 25 min
  Tmax: 4 min
[1]; [9]
  ClT: 6.7 to 13 mL/min
  MRT: 32 to 36 min
  T1/2(el): 22 to 25 min
[1]; [10]
  ClT (total body clearance): 13.0 mL/min
  Kel (elimination rate constant, central compartment): 0.031 min⁻¹
  MRT (residence time): 33 min
  Vd(c) (volume of distribution in the central compartment at Cmax): 107 mL
  Vd(extrap): 504 mL
  Vd(β) (volume of distribution in the elimination phase): 425 mL
[1]; [11]
  ClT (total body clearance): 8.7 mL/min
  Kel (elimination rate constant, central compartment): 0.024 min⁻¹
  MRT (residence time): 42 min
  Vd(c) (volume of distribution in the central compartment at Cmax): 111 mL
  Vd(extrap): 382 mL
  Vd(β) (volume of distribution in the elimination phase): 362 mL
[1]; [12]
  ClT (total body clearance): 9.3 mL/min
  Kel (elimination rate constant, central compartment): 0.031 min⁻¹
  MRT (residence time): 32 min
  Vd(c) (volume of distribution in the central compartment at Cmax): 122 mL
  Vd(extrap): 296 mL
  Vd(β) (volume of distribution in the elimination phase): 299 mL
[1]; [13]
  ClT (total body clearance): 6.7 mL/min
  Kel (elimination rate constant, central compartment): 0.028 min⁻¹
  MRT (residence time): 36 min
  Vd(c) (volume of distribution in the central compartment at Cmax): 108 mL
  Vd(extrap): 291 mL
  Vd(β) (volume of distribution in the elimination phase): 237 mL
[1]; rats, 28 days daily 300 μg/kg then i.v. bolus 300 μg/kg, n = 6 vs intact rats n = 6
  Effect of chronic administration on accumulation and pharmacokinetics: does not cause its accumulation in rats and does not affect the nature of its pharmacokinetics
[2]; blood, 0–20 min, n = 6 per time point, [3H]HAEE
  AUC(0–20), blood: 2110 (ng/g) × min
[2]; brain
  fT × 100%, brain: about 3%
[2]; brain, 0–20 min, n = 6 per time point
  AUC(0–20), brain: 70 (ng/g) × min
[2]; heart, 0–20 min, n = 6 per time point
  AUC(0–20), heart: 845 (ng/g) × min
[2]; kidney, 0–20 min, n = 6 per time point
  AUC(0–20), kidney: 3437 (ng/g) × min
[2]; liver, 0–20 min, n = 6 per time point
  AUC(0–20), liver: 777 (ng/g) × min
[2]; omentum, 0–20 min, n = 6 per time point
  AUC(0–20), omentum: 395 (ng/g) × min
[2]; [14]
  Time of first peak of HAEE concentration in tissues (bimodal relationship): 4 min
  Time of second peak of HAEE concentration in tissues (bimodal relationship): 10 to 15 min
[3]
  Stability in human plasma (intact peptide peak area vs sample in PBS): no significant degradation
[4]; rabbit blood, single i.v. bolus 120 μg/kg HAEE + [3H]HAEE, n = 3, sampling 2-120 min, HPLC + liquid scintillation
  Cmax (maximum concentration in the blood): 255 ng/mL
[4]; [15]
  T1/2(el) (elimination half-life): 20 min
  Tmax: 4 min
[4]; rabbit blood, single i.v. bolus 120 μg/kg, n = 3, 0-4 min by trapezoidal method
  AUC(0–∞): 4421 (ng/mL) × min
[4]; [16]
  ClT (total body clearance): 100 mL/min
  Kel (elimination rate constant, central compartment): 0.035 min⁻¹
  MRT (residence time): 29 min
  Vd(c) (volume of distribution in the central compartment at Cmax): 862 mL
  Vd(extrap): 3194 mL
  Vd(β) (volume of distribution in the elimination phase): 2860 mL
[5]
  Visible toxic effects and abnormalities in animal behavior: did not cause visible toxic effects and abnormalities in animal behavior
[6]
  Average number of amyloid plaques in a brain section: 5.8 ± 2.1
[7]
  Effect on amyloid aggregates formed upon contact with α4β2 nAChR: are destroyed
